Where a SMILES comes first, the peptide text is derived from it. [ ]: non-standard residue; d: D form.
Assays:
Endothelin-1 receptor = target: T1, Endothelin-1 receptor (Homo sapiens, UniProt P25101); assay: Affinity against ET A receptor
T1 sequence (P25101 whole entry): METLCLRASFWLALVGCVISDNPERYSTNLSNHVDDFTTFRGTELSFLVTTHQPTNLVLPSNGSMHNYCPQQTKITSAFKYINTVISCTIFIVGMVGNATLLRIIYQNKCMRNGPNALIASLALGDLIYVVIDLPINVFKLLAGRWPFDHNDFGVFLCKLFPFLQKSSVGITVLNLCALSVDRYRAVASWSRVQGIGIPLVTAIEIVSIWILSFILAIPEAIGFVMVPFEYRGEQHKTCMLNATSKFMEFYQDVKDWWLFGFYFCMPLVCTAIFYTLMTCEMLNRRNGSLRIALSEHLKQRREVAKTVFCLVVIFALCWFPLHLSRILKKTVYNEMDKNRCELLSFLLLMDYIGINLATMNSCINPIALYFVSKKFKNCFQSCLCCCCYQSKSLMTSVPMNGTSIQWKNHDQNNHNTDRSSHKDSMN

[1] = target: T2, Endothelin receptor type B (Rattus norvegicus, UniProt P21451); assay: Affinity against ET B receptor
T2 sequence (P21451 whole entry): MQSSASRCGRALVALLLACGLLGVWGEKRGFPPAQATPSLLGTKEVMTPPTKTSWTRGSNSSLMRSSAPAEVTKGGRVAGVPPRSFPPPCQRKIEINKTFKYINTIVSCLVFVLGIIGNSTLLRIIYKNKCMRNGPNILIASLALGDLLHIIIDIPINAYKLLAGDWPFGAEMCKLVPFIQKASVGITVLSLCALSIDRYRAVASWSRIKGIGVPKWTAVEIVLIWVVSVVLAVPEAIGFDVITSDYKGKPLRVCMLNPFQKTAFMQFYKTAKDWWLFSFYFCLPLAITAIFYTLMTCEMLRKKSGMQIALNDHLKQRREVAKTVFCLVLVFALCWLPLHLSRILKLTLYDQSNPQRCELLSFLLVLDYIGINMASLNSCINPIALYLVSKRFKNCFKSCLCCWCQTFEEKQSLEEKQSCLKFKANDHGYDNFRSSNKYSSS

| SMILES | Ki (Endothelin-1 receptor) | Ki [1] |
| --- | --- | --- |
| CCCN1c2ccccc2C(=O)N(CC(=O)O)c2cc(NC(=O)c3cccc4ccccc34)ccc21 | 83 µM |  |
| CCCN1c2ccccc2C(=O)N(CC(=O)O)c2cc(Cc3c[nH]c4ccccc34)ccc21 | 41 µM | 12 µM |
| CCCN1c2ccccc2C(=O)N(CC(=O)O)c2cc(NCc3cccc4ccccc34)ccc21 | 17 µM | 9 µM |
| CCCN1c2ccccc2C(=O)N(CC(=O)O)c2cc(OCc3cccc4ccccc34)ccc21 | 7 µM | 60 µM |
| CC(C)C[C@@H]1NC(=O)[C@@H](C(C)C)NC(=O)[C@@H]2CCCN2C(=O)[C@@H](CC(=O)O)NC(=O)[C@@H](Cc2c[nH]c3ccccc23)NC1=O [BQ-123] (cyclo(L[dW][dD]P[dV])) | 0.018 µM |  |
| CCCN1c2ccccc2C(=O)N(CC(=O)O)c2cc(NC(=O)c3c[nH]c4ccccc34)ccc21 | 80 µM | 11 µM |
| O=C(O)CN1C(=O)c2ccccc2Nc2ccc(OCc3cccc4ccccc34)cc21 | 28 µM | 8 µM |
| CCCN1c2ccccc2C(=O)N(CC(=O)O)c2cc(NC(=O)c3cc4ccccc4[nH]3)ccc21 | 33 µM | 6 µM |
| O=C(O)CN1C(=O)c2ccccc2Nc2ccc(OCc3ccccc3)cc21 | 109 µM | > 100 µM |
| CCCN1c2ccccc2C(=O)N(CC(=O)O)c2cc(NC(=O)Cc3c[nH]c4ccccc34)ccc21 | 14 µM | 7 µM |
| CC(C)C[C@@H]1NC(=O)[C@@H](C(C)C)NC(=O)[C@@H]2CCCN2C(=O)[C@@H](CC(=O)O)NC(=O)[C@@H](Cc2ccccc2)NC1=O | 2.4 µM |  |
| CC(C)C[C@@H]1NC(=O)[C@@H](C(C)C)NC(=O)[C@@H]2CCCN2C(=O)[C@@H](CC(=O)O)NC(=O)[C@@H](Cc2cccc3ccccc23)NC1=O | 0.224 µM |  |

— ChEMBL document CHEMBL1128621, “Design and synthesis of nonpeptidal endothelin receptor antagonists based on the structure of a cyclic pentapeptide” (Bioorg Med Chem Lett, 1995)
